From US9221756B2, “Pyrrole derivatives” (priority 2011, dated 2015)

Target: pneumolysin (Streptococcus pneumoniae serotype 2, UniProt Q04IN8)
Assay: Inhibition of the haemolytic activity of pneumolysin (sheep erythrocytes)
Type: cell-based
Details: IC50, inhibition of pneumolysin-induced haemolysis of sheep erythrocytes; class symbols of Table 1

pneumolysin, sequence (Q04IN8 whole entry): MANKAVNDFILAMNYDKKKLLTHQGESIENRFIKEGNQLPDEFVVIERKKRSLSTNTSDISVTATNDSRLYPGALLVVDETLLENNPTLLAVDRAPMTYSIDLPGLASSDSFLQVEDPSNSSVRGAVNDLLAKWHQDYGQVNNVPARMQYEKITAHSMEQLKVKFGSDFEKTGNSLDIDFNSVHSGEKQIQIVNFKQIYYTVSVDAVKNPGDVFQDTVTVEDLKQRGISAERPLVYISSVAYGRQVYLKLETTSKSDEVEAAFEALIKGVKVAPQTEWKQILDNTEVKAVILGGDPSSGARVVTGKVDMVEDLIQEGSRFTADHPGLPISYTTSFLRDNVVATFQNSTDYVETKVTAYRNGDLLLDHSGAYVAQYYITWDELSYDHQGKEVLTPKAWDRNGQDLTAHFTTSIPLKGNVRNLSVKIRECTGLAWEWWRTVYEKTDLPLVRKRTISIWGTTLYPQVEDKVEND

Question: Which IC50 does the source give for CN(C)C(=O)c1c(OCc2ccccc2)c(OCc2ccccc2)c(C(=O)N(C)C)n1-c1ccc(C(F)(F)F)cc1 [UL1-054, 3,4-bis(benzyloxy)-N^2,N^2,N^5,N^5-tetramethyl-1-(4-(trifluoromethyl)phenyl)-1H-pyrrole-2,5-dicarboxamide] here?
Answer: 10 to 20 µM

Question: With CCOC(=O)c1c(O)c(O)c(-c2nc(CC)cs2)n1-c1ccc(OC)cc1 [UL1-086, ethyl 5-(4-ethylthiazol-2-yl)-3,4-dihydroxy-1-(4-methoxyphenyl)-1H-pyrrole-2-carboxylate] as the compound, how does the IC50 read?
Answer: < 10 µM

Question: For CCOC(=O)c1c(O)c(O)c(C(=O)OCC)n1-c1cc(F)c(OCC)c(F)c1 [UL2-017, diethyl 1-(4-ethoxy-3,5-difluorophenyl)-3,4-dihydroxy-1H-pyrrole-2,5-dicarboxylate], which IC50 is on record?
Answer: < 10 µM

Question: How did the IC50 turn out when CCOC(=O)c1c(O)c(O)c(C(=O)OCC)n1-c1ccc(OCCOCCOCCOC)cc1 [UL2-035, diethyl 3,4-dihydroxy-1-(4-(2-(2-(2-methoxyethoxy)ethoxy)ethoxy)phenyl)-1H-pyrrole-2,5-dicarboxylate] was run?
Answer: < 10 µM

Question: For CCOC(=O)c1c(O)c(O)c(C(=O)N(CC)CC)n1-c1ccc(OC)cc1 [UL1-041, ethyl 5-(diethylcarbamoyl)-3,4-dihydroxy-1-(4-methoxyphenyl)-1H-pyrrole-2-carboxylate], which IC50 is on record?
Answer: < 10 µM

Question: For CCOC(=O)c1c(O)c(O)c(C(=O)OCC)n1-c1ccc(C(C)(C)C)cc1 [UL2-032, diethyl 1-(4-(tert-butyl)phenyl)-3,4-dihydroxy-1H-pyrrole-2,5-dicarboxylate], which IC50 is on record?
Answer: < 10 µM

Question: How did the IC50 turn out when COc1ccc(-n2c(C(=O)OC(C)(C)C)c(O)c(O)c2C(=O)N(C)C)cc1 [UL1-036, tert-butyl 5-(dimethylcarbamoyl)-3,4-dihydroxy-1-(4-methoxyphenyl)-1H-pyrrole-2-carboxylate] was run?
Answer: < 10 µM

Question: How did the IC50 turn out when COc1ccc(-n2c(C(=O)N(C)C)c(O)c(O)c2S(=O)(=O)NC(=O)OC(C)(C)C)cc1 [UL1-030, tert-butyl (5-(dimethylcarbamoyl)-3,4-dihydroxy-1-(4-methoxyphenyl)-1H-pyrrol-2-yl)sulfonylcarbamate] was run?
Answer: 20 to 60 µM

Question: Which IC50 does the source give for COc1ccc(-n2c(C(=O)N3CCOCC3)c(O)c(O)c2C(=O)N2CCOCC2)cc1 [UL1-004, (3,4-dihydroxy-1-(4-methoxyphenyl)-1H-pyrrole-2,5-diyl)bis(morpholinomethanone)] here?
Answer: < 10 µM

Question: With CCOC(=O)c1c(OCc2ccccc2)c(OCc2ccccc2)c(C(=O)N(C)C)n1-c1ccc(I)cc1 [UL1-062, ethyl 3,4-bis(benzyloxy)-5-(dimethylcarbamoyl)-1-(4-iodophenyl)-1H-pyrrole-2-carboxylate] as the compound, how does the IC50 read?
Answer: < 10 µM

Question: For CCOC(=O)c1c(O)c(O)c(C(=O)N(C)C)n1-c1ccc(OP(=O)(O)O)cc1 [UL1-101, ethyl 5-(dimethylcarbamoyl)-3,4-dihydroxy-1-(4-(phosphonooxy)phenyl)-1H-pyrrole-2-carboxylate], which IC50 is on record?
Answer: < 10 µM

Question: Which IC50 does the source give for CCOC(=O)c1c(O)c(OCC(=O)OC(C)(C)C)c(C(=O)OCC)n1-c1ccc(OC)cc1 [UL2-030, diethyl 3-(2-(tert-butoxy)-2-oxoethoxy)-4-hydroxy-1-(4-methoxyphenyl)-1H-pyrrole-2,5-dicarboxylate] here?
Answer: 10 to 20 µM

Question: How did the IC50 turn out when COc1ccc(-n2c(C(=O)N(C)C)c(O)c(O)c2C(=O)N2CCCCC2)cc1 [UL1-025, 3,4-dihydroxy-1-(4-methoxyphenyl)-N,N-dimethyl-5-(piperidine-1-carbonyl)-1H-pyrrole-2-carboxamide] was run?
Answer: < 10 µM

Question: With COc1ccc(-n2c(C(=O)N3CCN(C(C)=O)CC3)c(O)c(O)c2C(=O)N2CCN(C(C)=O)CC2)cc1 [UL1-033, 1,1′-(4,4′-(3,4-dihydroxy-1-(4-methoxyphenyl)-1H-pyrrole-2,5-dicarbonyl)bis(piperazine-4,1-diyl))diethanone] as the compound, how does the IC50 read?
Answer: < 10 µM

Question: How did the IC50 turn out when CCOC(=O)c1c(O)c(OCC(N)=O)c(C(=O)OCC)n1-c1ccc(F)cc1 [UL2-029, diethyl 3-(2-amino-2-oxoethoxy)-1-(4-fluorophenyl)-4-hydroxy-1H-pyrrole-2,5-dicarboxylate] was run?
Answer: 20 to 60 µM

Question: CCOC(=O)c1c(O)c(O)c(C(=O)N(C)C)n1-c1ccc(OCCOCCOCCOCCOC)cc1 [UL1-096, ethyl 1-(4-(2,5,8,11-tetraoxatridecan-13-yloxy)phenyl)-5-(dimethylcarbamoyl)-3,4-dihydroxy-1H-pyrrole-2-carboxylate] was tested. Which IC50 did it give?
Answer: < 10 µM

Question: CCOC(=O)c1c(O)c(O)c(C(=O)OCC)n1-c1ccc(F)cc1 [UL2-003, diethyl 1-(4-fluorophenyl)-3,4-dihydroxy-1H-pyrrole-2,5-dicarboxylate] was tested. Which IC50 did it give?
Answer: 10 to 20 µM

Question: How did the IC50 turn out when CCOC(=O)c1c(O)c(O)c(C(=O)OCC)n1-c1cccc(OC)c1 [UL2-004, diethyl 3,4-dihydroxy-1-(3-methoxyphenyl)-1H-pyrrole-2,5-dicarboxylate] was run?
Answer: 10 to 20 µM

Question: Which IC50 does the source give for COc1ccc(-n2c(C(=O)OC(C)C)c(O)c(O)c2C(=O)OC(C)C)cc1 [UL2-020, diisopropyl 3,4-dihydroxy-1-(4-methoxyphenyl)-1H-pyrrole-2,5-dicarboxylate] here?
Answer: < 10 µM

Question: With COc1ccc(-n2c(C(=O)N(C)C)c(OCc3ccccc3)c(OCc3ccccc3)c2C(=O)N2CCCCC2)cc1 [UL1-057, 3,4-bis(benzyloxy)-1-(4-methoxyphenyl)-N,N-dimethyl-5-(piperidine-1-carbonyl)-1H-pyrrole-2-carboxamide] as the compound, how does the IC50 read?
Answer: < 10 µM

Question: CCOC(=O)c1c(O)c(O)c(C(=O)OCC)n1-c1ccc(C)cc1 [UL2-010, diethyl 3,4-dihydroxy-1-(p-tolyl)-1H-pyrrole-2,5-dicarboxylate] was tested. Which IC50 did it give?
Answer: < 10 µM

Question: For CCOC(=O)c1c(O)c(O)c(C(=O)N(C)C)n1-c1ccc(F)cc1 [UL1-032, ethyl 5-(dimethylcarbamoyl)-1-(4-fluorophenyl)-3,4-dihydroxy-1H-pyrrole-2-carboxylate], which IC50 is on record?
Answer: < 10 µM

Question: For CCOC(=O)c1c(O)c(O)c(C(=O)OCC)n1-c1ccc(CC)cc1 [UL2-009, diethyl 1-(4-ethylphenyl)-3,4-dihydroxy-1H-pyrrole-2,5-dicarboxylate], which IC50 is on record?
Answer: < 10 µM

Question: With CN(C)C(=O)c1c(OCc2ccccc2)c(OCc2ccccc2)c(C#N)n1-c1ccc(F)cc1 [UL1-061, 3,4-bis(benzyloxy)-5-cyano-1-(4-fluorophenyl)-N,N-dimethyl-1H-pyrrole-2-carboxamide] as the compound, how does the IC50 read?
Answer: < 10 µM

Question: For CN(C)C(=O)c1ccc(-n2c(C(=O)N(C)C)c(O)c(O)c2C(=O)N(C)C)cc1 [UL1-029, 1-(4-(dimethylcarbamoyl)phenyl)-3,4-dihydroxy-N^2,N^2,N^5,N^5-tetramethyl-1H-pyrrole-2,5-dicarboxamide], which IC50 is on record?
Answer: < 10 µM

Question: How did the IC50 turn out when CCNC(=O)c1c(O)c(O)c(C(=O)NCC)n1-c1ccc(OCC)cc1 [UL1-078, 1-(4-ethoxyphenyl)-N2,N5-diethyl-3,4-dihydroxy-1H-pyrrole-2,5-dicarboxamide] was run?
Answer: < 10 µM

Question: How did the IC50 turn out when CCOC(=O)c1c(O)c(O)c(C(=O)N(C)C)n1-c1ccc(OC)c(I)c1 [UL1-043, ethyl 5-(dimethylcarbamoyl)-3,4-dihydroxy-1-(3-iodo-4-methoxyphenyl)-1H-pyrrole-2-carboxylate] was run?
Answer: < 10 µM

Question: Which IC50 does the source give for CCOC(=O)c1c(O)c(O)c(C(=O)OCC)n1-c1ccccc1OC [UL2-023, diethyl 3,4-dihydroxy-1-(2-methoxyphenyl)-1H-pyrrole-2,5-dicarboxylate] here?
Answer: 20 to 60 µM

Question: Which IC50 does the source give for CCOC(=O)c1c(O)c(O)c(C(=O)OCC)n1-c1ccccc1 [UL2-002, diethyl 3,4-dihydroxy-1-phenyl-1H-pyrrole-2,5-dicarboxylate] here?
Answer: < 10 µM

Question: COc1ccc(-n2c(C(=O)OC(C)(C)C)c(O)c(O)c2C(=O)OC(C)(C)C)cc1 [UL2-022, di-tert-butyl 3,4-dihydroxy-1-(4-methoxyphenyl)-1H-pyrrole-2,5-dicarboxylate] was tested. Which IC50 did it give?
Answer: < 10 µM

Question: Which IC50 does the source give for COc1ccc(-n2c(C(=O)N3CCNCC3)c(O)c(O)c2C(=O)N2CCNCC2)cc1 [UL1-016, (3,4-dihydroxy-1-(4-methoxyphenyl)-1H-pyrrole-2,5-diyl)bis(piperazin-1-ylmethanone)] here?
Answer: < 10 µM

Question: For COc1ccc(-n2c(C(=O)N3CCCCC3)c(OCc3ccccc3)c(OCc3ccccc3)c2C(=O)N2CCCCC2)cc1 [UL1-049, (3,4-bis(benzyloxy)-1-(4-methoxyphenyl)-1H-pyrrole-2,5-diyl)bis(piperidin-1-ylmethanone)], which IC50 is on record?
Answer: < 10 µM

Question: For CCNC(=O)c1c(OCc2ccccc2)c(OCc2ccccc2)c(C(=O)N(C)C)n1-c1ccc(OC)cc1 [UL1-055, 3,4-bis(benzyloxy)-N^2-ethyl-1-(4-methoxyphenyl)-N^5,N^5-dimethyl-1H-pyrrole-2,5-dicarboxamide], which IC50 is on record?
Answer: 10 to 20 µM

Question: With CCOc1ccc(-n2c(C(=O)N(C)C)c(O)c(O)c2C(=O)N(C)C)cc1 [UL1-021, 1-(4-ethoxyphenyl)-3,4-dihydroxy-N^2,N^2,N^5,N^5-tetramethyl-1H-pyrrole-2,5-dicarboxamide] as the compound, how does the IC50 read?
Answer: < 10 µM

Question: For CCOC(=O)c1c(O)c(O)c(C(=O)OCC)n1-c1ccc(OCCOC)cc1 [UL2-034, diethyl 3,4-dihydroxy-1-(4-(2-methoxyethoxy)phenyl)-1H-pyrrole-2,5-dicarboxylate], which IC50 is on record?
Answer: < 10 µM

Question: With CCOC(=O)c1c(O)c(O)c(C(=O)N(C)C)n1-c1ccc(OCCCS(C)(=O)=O)cc1 [UL1-110, ethyl 5-(dimethylcarbamoyl)-3,4-dihydroxy-1-(4-(3-(methylsulfonyl)propoxy)phenyl)-1H-pyrrole-2-carboxylate] as the compound, how does the IC50 read?
Answer: < 10 µM

Question: How did the IC50 turn out when CCOC(=O)c1c(O)c(O)c(C(=O)N2CCN(C)CC2)n1-c1ccc(OC)cc1 [UL1-037, ethyl 3,4-dihydroxy-1-(4-methoxyphenyl)-5-(4-methylpiperazine-1-carbonyl)-1H-pyrrole-2-carboxylate] was run?
Answer: < 10 µM

Question: COc1ccc(-n2c(C(=O)OCC(C)(C)C)c(O)c(O)c2C(=O)N(C)C)cc1 [UL1-112, neopentyl 5-(dimethylcarbamoyl)-3,4-dihydroxy-1-(4-methoxyphenyl)-1H-pyrrole-2-carboxylate] was tested. Which IC50 did it give?
Answer: < 10 µM

Same assay, conditions: IC50, inhibition of pneumolysin-induced haemolysis of sheep erythrocytes; specific values

Question: For COc1ccc(-n2c(C(=O)N3CCOCC3)c(O)c(O)c2C(=O)N2CCOCC2)cc1 [UL1-004, (3,4-dihydroxy-1-(4-methoxyphenyl)-1H-pyrrole-2,5-diyl)bis(morpholinomethanone)], which IC50 is on record?
Answer: 0.17 µM

Question: For COc1ccc(-n2c(C(=O)N3CCCCC3)c(OCc3ccccc3)c(OCc3ccccc3)c2C(=O)N2CCCCC2)cc1 [UL1-049, (3,4-bis(benzyloxy)-1-(4-methoxyphenyl)-1H-pyrrole-2,5-diyl)bis(piperidin-1-ylmethanone)], which IC50 is on record?
Answer: 0.479 µM

Same assay, conditions: inhibition of pneumolysin-induced haemolysis of sheep erythrocytes; class symbols of Table 1; read-out: IC50

Question: With CCOC(=O)c1c(O)c(OP(=O)(OCC)OCC)c(C(=O)N(C)C)n1-c1ccc(OC)cc1 [UL1-097, ethyl 4-((diethoxyphosphoryl)oxy)-5-(dimethylcarbamoyl)-3-hydroxy-1-(4-methoxyphenyl)-1H-pyrrole-2-carboxylate] as the compound, how does the IC50 read?
Answer: > 60 µM
